Strand notation (5' to 3'): a small letter for the sugar, then the base; units joined by * are phosphorothioate-linked, units joined directly phosphodiester-linked; [ ] holds rarer units or linkages, { } end groups; capitals alone tell only the bases. e = 2'-O-(2-methoxyethyl) (MOE); [5mC] = 5-methylcytosine; d = 2'-deoxy (DNA)
Key:
PTP1B mRNA [1] = experiment: Dose response for human PTP1B in HuVEC cells, Primer Probe Set 198 (Example 25, Table 86); type: cell-based
Description: (§1) Human vascular endothelial (HuVEC) cells were plated at a density of 5000 cells per well and treated as described herein with nM concentrations of short antisense compound as indicated in Table 86. After the treatment period, RNA was isolated from the cells and PTP1B mRNA levels were measured by quantitative real-time PCR, as described herein. PTP1B mRNA levels were adjusted according to total RNA content as measured by RIBOGREEN®. Two different human PTP1B primer probe sets were used to measure mRNA levels. Results with Primer Probe Set (PPS) 198 are shown in Table 86, and results with Primer Probe Set (PPS) 3000 are shown in Table 87. Results are presented as percent inhibition of PTP1B mRNA expression relative to untreated control cells.

PTP1B mRNA [2] = experiment: Dose response for human PTP1B in HuVEC cells, Primer Probe Set 3000 (Example 25, Table 87); type: cell-based
Description: as §1

PCSK9 mRNA = type: cell-based, human; conditions: Hep3B cells, 100 nM, relative to untreated control cells; for % Inhib (PCSK9 mRNA): 0 = no reduction observed
Description: When cells reached appropriate confluency, they were treated with oligonucleotide using LIPOFECTIN® as described. […] Cells were treated and data were obtained in duplicate or triplicate. […] Cells were harvested 16-24 hours after oligonucleotide treatment.
Short antisense compounds targeted to a PCSK9 nucleic acid were tested for their effects on PCSK9 mRNA in vitro. The Isis No, gapmer motif and SEQ ID NO of each short antisense compound are shown again in Table 75. Cultured Hep3B cells were treated with 100 nM of short antisense compound. 5-10-5 MOE gapmers targeted to a PCSK9 nucleic acid were used as positive controls. After the treatment period, RNA was isolated from the cells and PCSK9 mRNA levels were measured by quantitative real-time PCR, as described herein. PCSK9 mRNA levels were adjusted according to total RNA content as measured by RIBOGREEN®. Results are presented in Table 75 as percent inhibition of PCSK9 (% Inhib), relative to untreated control cells.

[3] = Triglyceride, cholesterol and glucose levels, pre-bleed and post-bleed (Example 4, Table 34); type: in vivo, mouse
Description: Eight-week old male C57/BL6 mice (Jackson Laboratory, Bar Harbor, Me.) were administered a single dose of GCGR oligonucleotide by intraperitoneal injection at a concentration of […]. Each dose group consisted of four animals. Shown in Table 31 are the sequences, motifs and conjugates of the GCGR antisense compounds used in this study. Bolded residues indicate 2′-O-methoxyethyl (2′-MOE) moieties. All compounds comprise phosphorothioate internucleoside linkages throughout and each cytosine is replaced with 5-methylcytosine. ISIS 386626, ISIS 386627 and ISIS 386628 further comprise a C16 conjugate group attached to the 2′-O position of the sugar via a diamide linkage (2′-OCH2C(═O)N(H)(CH2)4N(H)C(═O)—(CH2)15CH3). GCGR antisense compounds target published GCGR sequences, including Genbank® Accession No. BC031885.1 (SEQ ID NO: 7).
Mice were sacrificed 48 hours following injection to determine serum transaminase levels (Table 32); liver, white adipose tissue (WAT), spleen and kidney weight (Table 33); cholesterol, triglyceride and glucose levels (Table 34); GCGR mRNA levels (Tables 35-41); and full-length and total oligonucleotide concentration in liver and kidney (Table 42). Endpoints were assessed using methods described herein and well known to those of ordinary skill in the art. Data is included from a pre-treatment bleed (Pre-Bleed) and post-treatment bleed (Post-Bleed).

Substance | % Inhibition of PTP1B mRNA (PTP1B mRNA [1]; PPS 198, 1.11 nM) [%] | % Inhibition of PTP1B mRNA (PTP1B mRNA [1]; PPS 198, 3.33 nM) [%] | % Inhibition of PTP1B mRNA (PTP1B mRNA [1]; PPS 198, 10.0 nM) [%] | % Inhibition of PTP1B mRNA (PTP1B mRNA [1]; PPS 198, 30.0 nM) [%] | % Inhibition of PTP1B mRNA (PTP1B mRNA [2]; PPS 3000, 1.11 nM) [%] | % Inhibition of PTP1B mRNA (PTP1B mRNA [2]; PPS 3000, 3.33 nM) [%] | % Inhibition of PTP1B mRNA (PTP1B mRNA [2]; PPS 3000, 10.0 nM) [%] | % Inhibition of PTP1B mRNA (PTP1B mRNA [2]; PPS 3000, 30.0 nM) [%] | % Inhibition Range (PCSK9 mRNA) (PCSK9 mRNA) | % Inhib (PCSK9 mRNA) (PCSK9 mRNA) [%] | post-bleed glucose levels ([3]; C57/BL6 mice, single i.p. dose, 48 hours) | post-bleed triglyceride levels ([3]; relative to the 5-10-5 MOE gapmer)
398105 (antisense eT*eG*d[5mC]*dA*d[5mC]*dA*dG*dG*d[5mC]*dA*dG*dG*eT*eT) [compound 398105] | 0 | 25 | 79 | 90 | 0 | 35 | 79 | 93 |  |  |  | 
399208 (antisense eA*eG*d[5mC]*dT*d[5mC]*dG*d[5mC]*dT*dA*d[5mC]*d[5mC]*dT*e[5mC]*eT) [compound 399208] | 0 | 37 | 86 | 93 | 0 | 47 | 85 | 96 |  |  |  | 
398173 (antisense e[5mC]*dA*dG*d[5mC]*d[5mC]*dT*dG*dG*dG*d[5mC]*dA*e[5mC]) [compound 398173] | 0 | 4 | 80 | 97 | 0 | 18 | 80 | 90 |  |  |  | 
399096 (antisense eT*eG*d[5mC]*dT*d[5mC]*dG*dA*dA*d[5mC]*dT*d[5mC]*d[5mC]*eT*eT) [compound 399096] | 3 | 30 | 78 | 96 | 0 | 23 | 75 | 94 |  |  |  | 
399173 (antisense eA*eT*dG*d[5mC]*dT*dA*dG*dT*dG*d[5mC]*dA*d[5mC]*eT*eA) [compound 399173] | 0 | 24 | 63 | 89 | 0 | 11 | 59 | 92 |  |  |  | 
399276 (antisense eG*eA*dG*dG*dT*dA*dT*d[5mC]*d[5mC]*d[5mC]*dA*dT*e[5mC]*eT) [compound 399276] | 0 | 8 | 61 | 89 | 0 | 14 | 64 | 86 |  |  |  | 
398120 (antisense eG*eT*dT*d[5mC]*dA*dA*dG*d[5mC]*dG*dG*d[5mC]*d[5mC]*eT*eA) [compound 398120] | 0 | 31 | 80 | 96 | 0 | 35 | 79 | 93 |  |  |  | 
398112 (antisense e[5mC]*eA*dG*d[5mC]*d[5mC]*dT*dG*dG*d[5mC]*dA*d[5mC]*d[5mC]*eT*eA) [compound 398112] | 1 | 10 | 73 | 93 | 0 | 26 | 77 | 94 |  |  |  | 
400329 (e[5mC]*eA*d[5mC]*dG*dT*dG*dG*dG*d[5mC]*dA*dG*d[5mC]*eA*eG; antisense) [compound 400329] |  |  |  |  |  |  |  |  | 10-20% | 14 |  | 
400306 (antisense e[5mC]*eT*dG*dT*d[5mC]*dA*d[5mC]*dA*d[5mC]*dT*dT*dG*e[5mC]*eT) [compound 400306] |  |  |  |  |  |  |  |  | 40-50% | 40 |  | 
400361 (antisense eG*eG*d[5mC]*dA*dG*d[5mC]*dA*dG*dA*dT*dG*dG*e[5mC]*eA) [compound 400361] |  |  |  |  |  |  |  |  |  | 2 |  | 
ISIS 386628: GCGR 2-10-2 MOE gapmer with C16 conjugate group at the 2′-O position via a diamide linkage (antisense TGTCTTGCTGCTTT; chemistry not fully specified) |  |  |  |  |  |  |  |  |  |  | generally led to a decrease | greatest dose-dependent effect
400368 (antisense e[5mC]*eG*dG*d[5mC]*dT*d[5mC]*d[5mC]*dG*dG*d[5mC]*dA*dG*e[5mC]*eA) [compound 400368] |  |  |  |  |  |  |  |  | 10-20% | 11 |  | 
